In article PMC10765413, “Correlating Conformational Equilibria with Catalysis in the Electron Bifurcating EtfABCX of Thermotoga maritima” (Biochemistry, 2023):
Like-named read-outs stand apart in the source and are kept apart here.

What was measured:
EtfABCX [1] = molecular target: T1, EtfABCX (Thermotoga maritima, UniProt Q9X1L6+Q9X1L7+Q9X1L8); assay: FAD released by […] SDS and quantified by absorbance; assay type: binding; conditions: co-purified; BF-FAD in EtfA, ET-FAD in EtfB, QR-FAD in EtfC
T1 construct: gene TM_1530; operon in pET-21a(+), N-terminal 9xHis tag, E. coli BL21(DE3) deltaiscR, anaerobic purification; superdimer (ABCX)2, 257 kDa, three FAD per supermonomer; with Ferredoxin-like protein FixX (EtfX; two [4Fe-4S] clusters)

EtfAB [2] = molecular target: T2, EtfAB (Thermotoga maritima, UniProt Q9X1L6+Q9X1L7); assay: FAD released by […] SDS and quantified by absorbance; assay type: binding; conditions: co-purified; BF-FAD site in EtfA and ET-FAD site in EtfB
T2 construct: gene TM_1530; recombinant EtfAB heterodimer from E. coli BL21(DE3) deltaiscR, 9xHis tag, 69 kDa expected, two FAD per heterodimer, purified anaerobically

EtfAB [3] = molecular target: T2, EtfAB; assay: anaerobic SEC-SAXS with in-line UV-visible spectroscopy (flavin reduction, compaction); assay type: binding; conditions: 20 mM Tris-HCl pH 8.0, 200 mM NaCl, room temperature
EtfABCX [4] = molecular target: T1, EtfABCX; assay: anaerobic SEC-MALS-SAXS with in-line UV-visible spectroscopy; assay type: binding; conditions: NAD+ in running buffer, 20 mM Tris-HCl pH 8.0, 200 mM NaCl, 0.01% DDM
[5] = molecular target: Thermotoga maritima Fix/EtfABCX supermonomer (ABCX heterotetramer protomer) (Thermotoga maritima); assay: SEC-MALS + other: SEC-SAXS; anaerobic SEC-MALS-SAXS of purified EtfABCX; KW-803 column, room temperature, 0.65 mL/min; 20 mM Tris-HCl pH 8.0, 200 mM NaCl with 0.01% DDM (also buffer only); no additive, NADH, NAD+ or DT in the running buffer
[6] = molecular target: Thermotoga maritima Fix/EtfABCX supermonomer (ABCX heterotetramer protomer) (Thermotoga maritima); assay: as above; remark: listed apart in the source

T2 sequence (Q9X1L6 entry or part of it): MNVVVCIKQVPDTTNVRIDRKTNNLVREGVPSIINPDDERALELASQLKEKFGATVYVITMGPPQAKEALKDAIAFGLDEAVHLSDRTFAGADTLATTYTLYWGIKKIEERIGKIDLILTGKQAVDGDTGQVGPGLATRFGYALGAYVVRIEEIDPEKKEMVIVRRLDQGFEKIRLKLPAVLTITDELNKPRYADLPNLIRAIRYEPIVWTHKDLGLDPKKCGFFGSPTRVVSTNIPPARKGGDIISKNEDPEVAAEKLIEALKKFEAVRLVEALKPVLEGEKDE
T2 sequence (Q9X1L7 entry or part of it): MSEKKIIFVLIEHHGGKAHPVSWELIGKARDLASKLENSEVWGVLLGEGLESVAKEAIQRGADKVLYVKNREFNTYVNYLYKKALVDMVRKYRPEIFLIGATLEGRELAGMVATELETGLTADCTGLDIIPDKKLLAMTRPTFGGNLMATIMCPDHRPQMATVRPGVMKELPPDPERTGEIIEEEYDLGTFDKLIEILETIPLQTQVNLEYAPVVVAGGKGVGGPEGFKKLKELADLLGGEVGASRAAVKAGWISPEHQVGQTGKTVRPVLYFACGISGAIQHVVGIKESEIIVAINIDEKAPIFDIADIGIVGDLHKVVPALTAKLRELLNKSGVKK
T1 sequence (Q9X1L6 2-285): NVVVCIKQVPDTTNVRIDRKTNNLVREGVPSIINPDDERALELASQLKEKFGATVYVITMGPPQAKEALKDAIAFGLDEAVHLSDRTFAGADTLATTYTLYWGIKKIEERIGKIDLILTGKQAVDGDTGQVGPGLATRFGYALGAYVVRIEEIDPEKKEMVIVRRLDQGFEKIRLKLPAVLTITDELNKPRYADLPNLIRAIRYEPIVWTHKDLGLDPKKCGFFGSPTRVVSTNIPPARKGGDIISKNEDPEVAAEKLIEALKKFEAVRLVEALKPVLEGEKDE
T1 sequence (Q9X1L7 1-338): as the sequence (Q9X1L7 entry or part of it) above
T1 sequence (Q9X1L8 1-438): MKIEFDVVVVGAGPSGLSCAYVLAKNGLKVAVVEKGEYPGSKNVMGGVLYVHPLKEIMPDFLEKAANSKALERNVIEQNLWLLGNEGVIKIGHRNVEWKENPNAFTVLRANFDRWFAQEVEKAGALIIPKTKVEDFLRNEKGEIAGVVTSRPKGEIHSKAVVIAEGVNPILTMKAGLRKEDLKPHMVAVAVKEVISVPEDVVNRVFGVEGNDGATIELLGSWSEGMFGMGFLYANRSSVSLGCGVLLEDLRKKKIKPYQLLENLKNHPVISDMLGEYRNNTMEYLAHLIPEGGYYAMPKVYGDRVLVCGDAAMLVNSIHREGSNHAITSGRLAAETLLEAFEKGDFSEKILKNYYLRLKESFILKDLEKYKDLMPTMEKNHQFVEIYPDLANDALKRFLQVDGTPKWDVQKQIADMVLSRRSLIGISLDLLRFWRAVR
T1 sequence (Q9X1L9 1-92 partner): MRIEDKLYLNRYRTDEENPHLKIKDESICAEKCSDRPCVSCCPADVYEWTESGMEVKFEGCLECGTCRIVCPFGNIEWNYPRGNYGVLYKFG

Cc1cc2nc3c(=O)[nH]c(=O)nc-3n(C[C@H](O)[C@H](O)[C@H](O)COP(=O)(O)OP(=O)(O)OC[C@H]3O[C@@H](n4cnc5c(N)ncnc54)[C@H](O)[C@@H]3O)c2cc1C [FAD]
FAD released by 1% SDS and quantified by absorbance (EtfABCX [1]): approximately three and two molecules of FAD per EtfABCX supermonomer and EtfAB heterodimer, respectively
FAD released by 1% SDS and quantified by absorbance (EtfAB [2]): approximately three and two molecules of FAD per EtfABCX supermonomer and EtfAB heterodimer, respectively

NC(=O)C1=CN([C@@H]2O[C@H](COP(=O)(O)OP(=O)(O)OC[C@H]3O[C@@H](n4cnc5c(N)ncnc54)[C@H](O)[C@@H]3O)[C@@H](O)[C@H]2O)C=CC1 [NADH]
anaerobic SEC-SAXS with in-line UV-visible spectroscopy (flavin reduction, compa) (EtfAB [3]; excess NADH in running buffer): EtfAB in the presence of excess NADH indicated that its FAD cofactors were fully reduced

NC(=O)c1ccc[n+]([C@@H]2O[C@H](COP(=O)(O)OP(=O)(O)OC[C@H]3O[C@@H](n4cnc5c(N)ncnc54)[C@H](O)[C@@H]3O)[C@@H](O)[C@H]2O)c1 [NAD^+]
anaerobic SEC-MALS-SAXS with in-line UV-visible spectroscopy (EtfABCX [4]): likely due to the formation of an EtfABCX-NAD^+ complex
anaerobic SEC-SAXS with in-line UV-visible spectroscopy (flavin reduction, compa) (EtfAB [3]; excess NAD+ in running buffer, as-purified enzyme): EtfAB in the presence of NAD^+ led the enzyme into a more extended state

Thermotoga maritima Fix/EtfABCX supermonomer (ABCX heterotetramer protomer) (complex)
stoichiometry N [5]: 4
stoichiometry N [6]: 2
